Data published in patent publication US20250281388A1, “COMPOSITIONS COMPRISING BREVIBACILLA MULTIFUNCTIONAL FERMENTATES AND METHODS OF USE” (Nutrition & Biosciences USA 4, Inc., priority 2022, published 2025).
“Also recorded” adds a separate entry of the source.

Key:
[1] = Activated ABTS antioxidant assay (absorbance at 405 nm, Trolox calibration); assay type: biochemical
Procedure: The Brevibacillus laterosporus fermentate was prepared as described in Example 2, using TSB media (1.7% Tryptone, 0.3% Soytone, 0.25% Glucose, 0.5% sodium chloride, 0.25% Potassium phosphate Dibasic) as the growing solution. The fermentate supernatant was first let flow through an Amicon® Ultra Centrifugal Filters with a size cutoff of 30 kDa. The permeate (which was essentially free of cells) was kept and then let flow through another Amicon® Ultra Centrifugal Filters with a size cutoff of 3 kDa. The retentate was concentrated by 10-fold in volume and stored as the final product (i.e., size is greater than 3 kDa and less than 30 kDa), referring as the concentrated fermentate in the subsequent experiments. The 10-fold concentrated fermentate was dosed separately at 2 weight percent into the serum (Table 2) and hydrogel (Table 3) formulations with xanthan gum.
The water-soluble analogue of α-Tocopherol, Trolox, is often used as a reference for characterization the antioxidant properties of a new ingredient in the assay (Reference: “Huang, S. W., Hopia, A., Schwarz, K., Frankel, E. N., & German, J. B. (1996). Antioxidant activity of α-tocopherol and trolox in different lipid substrates: bulk oils vs oil-in-water emulsions. Journal of Agricultural and Food Chemistry, 44 (2), 444-452.”).
A series of Trolox with different concentrations were used as the calibration curve for quantifying the antioxidant properties.
Table 5 summarizes the measured absorbance and the corresponding trolox equivalent (calculated from the Trolox calibration curve) of the fermentate and fermentate-dosed formulations.

[2] = Foam enhancing test (foam height in 50-ml conical tube); assay type: physicochemical; parameters: key: tube marking minus 10 (mL scale); 0 = no foam, 40 = maximum
Procedure: Foam enhancing capabilities of the Brevibacillus laterosporus A8.11 fermentate supernatant (cell free supernatant) were evaluated in the presence of different categories of surfactants and detergents commonly found in home and personal care cleaning formulations. To evaluate this, a solution of 1% zwitterionic detergent (CHAPS hydrate), 1% solution of the glycolipid biosurfactant type 1 (acidic sophorolipids non-acetylated), a 0.1% solution of glycolipid biosurfactant type 2 (lactonic (di-acetylated) sophorolipids), and 0.1% of the anionic/non-ionic detergent were each prepared with 10% cell free supernatant in a 50-ml conical tube with deionized water for a final volume of 10-mL. Control samples were prepared individually as 1% zwitterionic detergent, 1% solution of the glycolipid biosurfactant type 1, a 0.1% solution of glycolipid biosurfactant type 2, 0.1% of the anionic/non-ionic detergent and 10% cell free supernatant only in a 50-ml conical tube with deionized water for a final volume of 10-mL. All samples were shaken for 30 seconds by hand and left at room temperature to observe foam height. Foam height was measured by the marking on a 50-ml conical tube and subtracted by 10, where a value of 40 is the maximum foam height and a value of 0 indicates no foam.

[3] = tested on: Pseudomonas aeruginosa (ATCC #15442); assay: Polylysine control of Pseudomonas aeruginosa with or without Acumer 4200 (visual turbidity); assay type: cell-based; settings: 37 C overnight
Procedure: The ability of Polylysine, a known cationic peptide-based food preservative, to suppress the growth of Pseudomonas aeruginosa in the presence and absence of the anionic polymer Acumer 4200 was also evaluated. The test was conducted in scintillation vials inoculated with a 1:100 dilution from an overnight of Pseudomonas aeruginosa (ATCC #15442) allowed to incubate at 37 C overnight. The readout was visual with turbidity as an indicator of Pseudomonas growth.

[4] = Foam stabilizing test (foam height in 50-ml conical tube); assay type: physicochemical; parameters: unit not given beside the values
Procedure: Foam stabilizing capabilities of the Brevibacillus laterosporus A8.11 fermentate supernatant (cell free supernatant) were evaluated in the presence of different categories of surfactants and detergents commonly found in home and personal care cleaning formulations. To evaluate this, a solution of a 1% non-ionic detergent (Tergitol 15-S-7) and a 1% solution of anionic surfactant (Sodium lauroyl sarcosinate) were each prepared with 10% cell free supernatant in a 50-ml conical tube with deionized water for a final volume of 10-mL. Control samples were prepared individually as 1% non-ionic detergent only, 1% anionic surfactant only and 10% cell free supernatant only in 50-ml conical tubes with deionized water for a final volume of 10-mL. All samples were shaken for 30 seconds by hand and left at room temperature to observe foam height. Foam height was measured by the marking on a 50-ml conical tube and subtracted by 10, where a value of 40 is the maximum foam height and a value of 0 indicates no foam. Foam stabilization was defined as the ability to maintain the starting foam height over multiple timepoints.

[5] = Time 0, 10-mL in deionized water, shaken 30 seconds, 40 = maximum

## Cc1c(C)c2c(c(C)c1O)CCC(C)(C(=O)O)O2 (stereo not drawn) [Trolox]
[1]; Trolox 4.7 μM
  Measured absorbance: 1.16
[1]; Trolox 9.4 μM
  Measured absorbance: 1.13
[1]; Trolox 18.75 μM
  Measured absorbance: 1.09
[1]; Trolox 37.5 μM
  Measured absorbance: 0.97
[1]; Trolox 75 μM
  Measured absorbance: 0.77
[1]; Trolox 150 μM
  Measured absorbance: 0.38

## C[C@H](CCC(=O)NCCC[N+](C)(C)CCCS(=O)(=O)[O-])[C@H]1CC[C@H]2[C@@H]3[C@H](O)C[C@@H]4C[C@H](O)CC[C@]4(C)[C@H]3C[C@H](O)[C@]12C.O [Zwitterionic Detergent, CHAPS hydrate]
[2]; [5]
  Foam Height: 15
[2]; Time 1 min
  Foam Height: 2.5
[2]; Time 5 min
  Foam Height: 0
[2]; Time 15 min
  Foam Height: 0
[2]; Time 30 min
  Foam Height: 0
[2]; Time 3 hours
  Foam Height: 0
[2]; Time 24 hours
  Foam Height: 0

## Polylysine
[3]; TSB growth medium with Acumer 4200 and polylysine
  Visual Inspection: does not function as an antimicrobial; also recorded: Turbid
[3]; TSB growth medium with the substance alone
  Visual Inspection: able to suppress microbial growth; also recorded: Clear (polylysine prevented growth)

## Tergitol 15-S-7 [Non-ionic Detergent]
[4]; [5]
  Foam Height: 37.5
[4]; Time 1 min
  Foam Height: 37.5
[4]; Time 5 min
  Foam Height: 36
[4]; Time 15 min
  Foam Height: 22.5
[4]; Time 30 min
  Foam Height: 20
[4]; Time 3 hours
  Foam Height: 14
[4]; Time 24 hours
  Foam Height: 2

## acidic sophorolipids non-acetylated [Glycolipid Biosurfactant Type-1]
[2]; [5]
  Foam Height: 2.5
[2]; Time 1 min
  Foam Height: 1
[2]; Time 5 min
  Foam Height: 1
[2]; Time 15 min
  Foam Height: 1
[2]; Time 30 min
  Foam Height: 1
[2]; Time 3 hours
  Foam Height: 0
[2]; Time 24 hours
  Foam Height: 0

## lactonic (di-acetylated) sophorolipids [Glycolipid Biosurfactant Type-2]
[2]; [5]
  Foam Height: 2.5
[2]; Time 1 min
  Foam Height: 2.5
[2]; Time 5 min
  Foam Height: 2
[2]; Time 15 min
  Foam Height: 1
[2]; Time 30 min
  Foam Height: 1
[2]; Time 3 hours
  Foam Height: 0
[2]; Time 24 hours
  Foam Height: 0
